Measurements: ChEMBL document CHEMBL1124176, “1-Methyl-4-phenyl-1,2,3,6-tetrahydropyridine analogues. Inactivation of monoamine oxidase by conformationally rigid analogues of N,N-dimethylcinnamylamine” (J Med Chem, 1988)

Assays:
[1] = Cytotoxicity measured as % loss of cells after 120 min; type: cell-based; conditions: rat, 2 h
[2] = Cytotoxicity measured as % loss of cells after 60 min; type: cell-based; conditions: rat, 1 h
[3] = Cytotoxicity measured as % loss of cells after 90 min; type: cell-based; conditions: rat
[4] = molecular target: Amine oxidase [flavin-containing] B (Bos taurus) (UniProt P56560)
[5] = molecular target: Amine oxidase [flavin-containing] B (Bos taurus) (UniProt P56560); assay: Inactivation of monoamine oxidase measured as kinetic constant, KI at 0.8-4 conc range
[6] = molecular target: Amine oxidase [flavin-containing] B (Bos taurus) (UniProt P56560); assay: Inactivation of monoamine oxidase measured as kinetic constant, Kinact at 0.8-4 conc range

Sequence of Amine oxidase [flavin-containing] B (Bos taurus) (P56560 whole entry, looked up): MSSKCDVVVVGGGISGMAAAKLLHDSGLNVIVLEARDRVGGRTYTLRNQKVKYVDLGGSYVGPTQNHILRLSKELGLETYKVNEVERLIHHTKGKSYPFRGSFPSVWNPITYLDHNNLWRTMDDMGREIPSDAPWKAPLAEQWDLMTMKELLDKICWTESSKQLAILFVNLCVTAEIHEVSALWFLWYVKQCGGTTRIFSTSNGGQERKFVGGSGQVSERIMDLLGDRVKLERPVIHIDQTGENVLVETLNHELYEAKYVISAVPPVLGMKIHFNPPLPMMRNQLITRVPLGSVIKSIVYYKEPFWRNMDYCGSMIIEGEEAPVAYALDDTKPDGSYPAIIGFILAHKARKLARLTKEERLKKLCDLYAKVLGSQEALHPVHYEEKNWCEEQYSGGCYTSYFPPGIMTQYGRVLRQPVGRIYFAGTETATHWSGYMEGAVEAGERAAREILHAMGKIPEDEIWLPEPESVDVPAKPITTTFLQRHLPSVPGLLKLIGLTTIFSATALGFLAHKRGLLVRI

Structure (SMILES)	Ki [4]	Ki [5]	kinact [6]	Loss of cells [1]	Loss of cells [2]	Loss of cells [3]
CN1CC=C(c2ccccc2)CC1	–	–	–	81%	12%	58%
C#CCN(C)Cc1ccccc1.NC1C=C(c2ccccc2)CCC1 (stereo not given)	–	–	–	69%	24%	51%
C#CCN(C)Cc1ccccc1.CN1CC=C(c2ccccc2)CC1	–	–	–	5%	6%	11%
C#CCN(C)Cc1ccccc1.CN(C)C1C=C(c2ccccc2)CCC1 (stereo not given)	–	–	–	–	100%	–
CN(C)C/C=C/c1ccccc1	1350 µM	1330 µM	0.00356 s⁻¹	–	–	–

Second part, led by results:

Ki [4]	Ki [5]	kinact [6]	Structure (SMILES)	Loss of cells [1]	Loss of cells [2]	Loss of cells [3]
1040 µM	–	–	CN(C)C1C=C(c2ccccc2)CCC1 (stereo not given)	–	100%	–
1900 µM	–	–	C/C=C(\C)c1ccccc1	–	–	–
510 µM	–	–	NC1C=C(c2ccccc2)CCC1 (stereo not given)	60%	28%	35%
